Results reported in patent US4508648A, “Phosphoric ester of antibiotic OA-6129” (Sanraku-Ocean Co., Ltd., priority 1981, dated 1985).
Values after ≈ are worked out from the molar mass of the structure shown. Like-named read-outs stand apart in the source and are kept apart here.

Assays:
[1] = tested on: Enterobacter aerogenes E-19; assay: Minimum inhibitory concentration, agar dilution technique; assay type: cell-based; details: Klebsiella aerogenes, E19; beta-lactam-resistant strain; heart infusion agar; inoculum 10^6 cells/ml; read-out: Minimum Inhibitory Concentration (M.I.C.)
Excerpt: (§1) Minimum Inhibitory Concentration (M.I.C. in μg/ml)**
(§2) *Beta-lactam-resistant strain.
(§3) **Medium heartinfusion agar (Difco Lab.); inoculum size 10^6 cells/ml
(§4) determined by the agar dilution technique

Serratia marcescens S-18 = assay: as above; assay type: cell-based
Excerpt: as §1, §2, §3, §4

[2] = tested on: Pseudomonas aeruginosa IFO 3445; assay: as above; assay type: cell-based; details: IFO3445, beta-lactam-resistant strain, heart infusion agar, inoculum 10^6 cells/ml, read-out: Minimum Inhibitory Concentration (M.I.C.)
Excerpt: as §1, §2, §3, §4

Escherichia coli RGN823 = assay: as above; assay type: cell-based; details: RGN823, read-out: Minimum Inhibitory Concentration (M.I.C.)
Excerpt: as §1, §2, §3, §4

[3] = tested on: Pseudomonas aeruginosa NCTC 10490; assay: as above; assay type: cell-based; details: NCTC10490, beta-lactam-resistant strain, heart infusion agar, inoculum 10^6 cells/ml, read-out: Minimum Inhibitory Concentration (M.I.C.)
Excerpt: as §1, §2, §3, §4

[4] = tested on: Citrobacter freundii GN346; assay: as above; assay type: cell-based; details: beta-lactam-resistant strain, heart infusion agar, inoculum 10^6 cells/ml, read-out: Minimum Inhibitory Concentration (M.I.C.)
Excerpt: as §1, §2, §3, §4

[5] = tested on: Klebsiella pneumoniae K13; assay: as above; assay type: cell-based
Excerpt: as §1, §2, §3, §4

Proteus sp. P-22 = assay: as above; assay type: cell-based; details: beta-lactam-resistant strain; heart infusion agar; inoculum 10^6 cells/ml; read-out: Minimum Inhibitory Concentration (M.I.C.)
Excerpt: as §1, §2, §3, §4

Serratia marcescens T55 = assay: as above; assay type: cell-based; details: beta-lactam-resistant strain, heart infusion agar, inoculum 10^6 cells/ml, read-out: Minimum Inhibitory Concentration (M.I.C.)
Excerpt: as §1, §2, §3, §4

Enterobacter cloacae 45 = assay: as above; assay type: cell-based; details: beta-lactam-resistant strain, heart infusion agar, inoculum 10^6 cells/ml, read-out: Minimum Inhibitory Concentration (M.I.C.)
Excerpt: as §1, §2, §3, §4

Proteus vulgaris GN76 = assay: as above; assay type: cell-based; details: beta-lactam-resistant strain, heart infusion agar, inoculum 10^6 cells/ml, read-out: Minimum Inhibitory Concentration (M.I.C.)
Excerpt: as §1, §2, §3, §4

[6] = tested on: Staphylococcus aureus Smith; assay: as above; assay type: cell-based; details: read-out: Minimum Inhibitory Concentration (M.I.C.)
Excerpt: as §1, §3, §4

[7] = tested on: Comamonas terrigena B-996; assay: as above; assay type: cell-based; details: B996, heart infusion agar, inoculum 10^6 cells/ml, read-out: Minimum Inhibitory Concentration (M.I.C.)
Excerpt: as §1, §3, §4

[8] = tested on: Staphylococcus aureus Russell; assay: as above; assay type: cell-based; details: heart infusion agar, inoculum 10^6 cells/ml, read-out: Minimum Inhibitory Concentration (M.I.C.)
Excerpt: as §1, §3, §4

Alcaligenes faecalis A1 = assay: as above; assay type: cell-based; details: heart infusion agar, inoculum 10^6 cells/ml, read-out: Minimum Inhibitory Concentration (M.I.C.)
Excerpt: as §1, §3, §4

[9] = tested on: Staphylococcus aureus 209P; assay: as above; assay type: cell-based; details: read-out: Minimum Inhibitory Concentration (M.I.C.)
Excerpt: as §1, §3, §4

Escherichia coli K-12 = assay: as above; assay type: cell-based; details: K12, heart infusion agar, inoculum 10^6 cells/ml, read-out: Minimum Inhibitory Concentration (M.I.C.)
Excerpt: as §1, §3, §4

[10] = tested on: Staphylococcus epidermidis; assay: as above; assay type: cell-based; details: heart infusion agar, inoculum 10^6 cells/ml, read-out: Minimum Inhibitory Concentration (M.I.C.)
Excerpt: as §1, §3, §4

Enterobacter sp. E-8 = assay: as above; assay type: cell-based; details: SP.E8, heart infusion agar, inoculum 10^6 cells/ml, read-out: Minimum Inhibitory Concentration (M.I.C.)
Excerpt: as §1, §3, §4

Proteus mirabilis P-6 = assay: as above; assay type: cell-based; details: P6, heart infusion agar, inoculum 10^6 cells/ml, read-out: Minimum Inhibitory Concentration (M.I.C.)
Excerpt: as §1, §3, §4

[11] = tested on: Bacillus subtilis ATCC 6633; assay: as above; assay type: cell-based
Excerpt: as §1, §3, §4

Providencia sp. P-8 = assay: as above; assay type: cell-based
Excerpt: as §1, §3, §4

Sarcina lutea = assay: as above; assay type: cell-based; details: Micrococcus luteus; heart infusion agar; inoculum 10^6 cells/ml; read-out: Minimum Inhibitory Concentration (M.I.C.)
Excerpt: as §1, §3, §4

Proteus rettgeri P-6 = assay: as above; assay type: cell-based; details: Providencia rettgeri
Excerpt: as §1, §3, §4

[12] = Relative stability in kidney homogenate of mouse; assay type: in vitro ADME; details: 37° C., 60 minutes, drug solution 100-300 μg/ml, read-out: Relative stability: drug remaining as a percentage of initial concentration
Method: (§5) *A drug solution (100-300 μg/ml) (0.1 ml) and a kidney homogenate (0.1
(§6) ml) were allowed to react at 37° C. for 60 minutes and the mixture
(§7) was immediately heattreated at 100° C. for 15 seconds. After
(§8) centrifugation, the concentration of the drug remaining in the supernatan
(§9) solution was bioassayed as a percentage of initial concentration by
(§10) Comamonas terrigena B996.
(§11) An overnight culture of Comamonas terrigena B-996 on a nutrient agar slant was suspended in nutrient broth to give a cell suspension of absorbance 0.04 at 610 nm. One percent of the cell suspension in volume was inoculated into molten agar medium containing 0.8% in weight of Kyokuto powdered bouillon (Kyokuto Pharmaceutical Co.) and 1.0% in weight of Bato-agar (Difco Lab.), and 7 ml each of the inoculated agar medium was poured into a 9 cm petri dish to make a Comamonas assay plate.

[13] = Relative stability in phosphate buffer, pH 7.0 (control); assay type: physicochemical; details: 37° C., 60 minutes, drug solution 100-300 μg/ml, read-out: Relative stability: drug remaining as a percentage of initial concentration
Method: as §5, §6, §7, §8, §9, §10, §11

[14] = Relative stability in kidney homogenate of man; assay type: in vitro ADME; details: human (man) kidney homogenate; 37° C., 60 minutes; drug solution 100-300 μg/ml; read-out: Relative stability: drug remaining as a percentage of initial concentration
Method: as §5, §6, §7, §8, §9, §10, §11

[15] = Relative stability in kidney homogenate of dog; assay type: in vitro ADME; details: 37° C., 60 minutes, drug solution 100-300 μg/ml, read-out: Relative stability: drug remaining as a percentage of initial concentration
Method: as §5, §6, §7, §8, §9, §10, §11

[16] = S18, beta-lactam-resistant strain, heart infusion agar, inoculum 10^6 cells/ml, read-out: Minimum Inhibitory Concentration (M.I.C.)
[17] = K13, beta-lactam-resistant strain, heart infusion agar, inoculum 10^6 cells/ml, read-out: Minimum Inhibitory Concentration (M.I.C.)
[18] = heart infusion agar, inoculum 10^6 cells/ml
[19] = ATCC6633, heart infusion agar, inoculum 10^6 cells/ml, read-out: Minimum Inhibitory Concentration (M.I.C.)
[20] = P6, heart infusion agar, inoculum 10^6 cells/ml, read-out: Minimum Inhibitory Concentration (M.I.C.)
[21] = SP.P8, heart infusion agar, inoculum 10^6 cells/ml, read-out: Minimum Inhibitory Concentration (M.I.C.)

SMILES	MIC [1] [µg/mL]	MIC [2] [µg/mL]	MIC (Escherichia coli RGN823) [µg/mL]	MIC [3] [µg/mL]	MIC [4] [µg/mL]	MIC (Proteus sp. P-22) [µg/mL]	MIC (Serratia marcescens T55) [µg/mL]	MIC (Enterobacter cloacae 45) [µg/mL]	MIC (Proteus vulgaris GN76) [µg/mL]	MIC [7] [µg/mL]	MIC [8] [µg/mL]	MIC (Alcaligenes faecalis A1) [µg/mL]	MIC (Escherichia coli K-12) [µg/mL]	MIC [10] [µg/mL]	MIC (Enterobacter sp. E-8) [µg/mL]	MIC (Proteus mirabilis P-6) [µg/mL]	remaining at 1 h [12] [%]	remaining at 1 h [13] [%]	remaining at 1 h [14] [%]	remaining at 1 h [15] [%]	also measured
CCC1C(=O)N2C(C(=O)O)=C(SCCNC(=O)CCNC(=O)C(O)C(C)(C)CO)CC12 (centres unmarked) [Antibiotic OA-6129A]	25 (≈ 54.6 µM)	> 100	12.5 (≈ 27.3 µM)	> 100	50 (≈ 109 µM)	100 (≈ 219 µM)	100 (≈ 219 µM)	50 (≈ 109 µM)	100 (≈ 219 µM)	0.05 (≈ 0.109 µM)	0.78 (≈ 1.7 µM)	1.56 (≈ 3.41 µM)	12.5 (≈ 27.3 µM)	1.56 (≈ 3.41 µM)	12.5 (≈ 27.3 µM)	50 (≈ 109 µM)	7	100	57	25	MIC (Serratia marcescens S-18; [16]): 100 µg/mL (≈ 219 µM); MIC [5, 17]: 50 µg/mL (≈ 109 µM); MIC [6, 18]: 1.56 µg/mL (≈ 3.41 µM); MIC [9, 18]: 0.78 µg/mL (≈ 1.7 µM); MIC [11, 19]: 0.39 µg/mL (≈ 0.852 µM); MIC (Providencia sp. P-8; SP.P8, read-out: Minimum Inhibitory Concentration (M.I.C.)): 12.5 µg/mL (≈ 27.3 µM); MIC (Sarcina lutea): 6.25 µg/mL (≈ 13.7 µM); MIC (Proteus rettgeri P-6; [20]): 25 µg/mL (≈ 54.6 µM)
CC(O)C1C(=O)N2C(C(=O)O)=C(SCCNC(=O)CCNC(=O)C(O)C(C)(C)CO)CC12 (centres unmarked) [Antibiotic OA-6129B]	–	–	–	–	–	–	–	–	–	–	–	–	–	–	–	–	20	98	47	20	–
CCC1C(=O)N2C(C(=O)O)=C(SCCNC(C)=O)CC12 (centres unmarked) [Antibiotic PS-5]	–	–	–	–	–	–	–	–	–	–	–	–	–	–	–	–	10	100	28	10	–
Cc1nnc(SCC2=C(C(=O)O)N3C(=O)[C@@H](NC(=O)Cn4cnnn4)[C@H]3SC2)s1 [Cefazolin]	> 400	> 400	1.56 (≈ 3.43 µM)	> 400	> 400	> 400	> 400	> 400	> 400	0.1 (≈ 0.22 µM)	0.2 (≈ 0.44 µM)	3.13 (≈ 6.89 µM)	1.56 (≈ 3.43 µM)	0.2 (≈ 0.44 µM)	1.56 (≈ 3.43 µM)	6.25 (≈ 13.8 µM)	–	–	–	–	MIC (Serratia marcescens S-18; [16]): > 400 µg/mL; MIC [5, 17]: 12.5 µg/mL (≈ 27.5 µM); MIC [6, 18]: 0.2 µg/mL (≈ 0.44 µM); MIC [9, 18]: 0.05 µg/mL (≈ 0.11 µM); MIC [11, 19]: 0.1 µg/mL (≈ 0.22 µM); MIC (Providencia sp. P-8; [21]): 0.78 µg/mL (≈ 1.72 µM); MIC (Sarcina lutea): 0.39 µg/mL (≈ 0.858 µM); MIC (Proteus rettgeri P-6; [20]): 3.13 µg/mL (≈ 6.89 µM)
CCC1C(=O)N2C(C(=O)O)=C(SCCNC(=O)CCNC(=O)C(O)C(C)(C)COP(=O)(O)O)CC12 (centres unmarked) [Phosphoric ester of antibiotic OA-6129A]	12.5 (≈ 23.3 µM)	> 25	3.13 (≈ 5.82 µM)	> 25	> 25	25 (≈ 46.5 µM)	> 25	25 (≈ 46.5 µM)	25 (≈ 46.5 µM)	0.05 (≈ 0.093 µM)	6.25 (≈ 11.6 µM)	1.56 (≈ 2.9 µM)	3.13 (≈ 5.82 µM)	6.25 (≈ 11.6 µM)	3.13 (≈ 5.82 µM)	25 (≈ 46.5 µM)	47	114	96	18	MIC (Serratia marcescens S-18; [16]): 25 µg/mL (≈ 46.5 µM); MIC [5, 17]: 25 µg/mL (≈ 46.5 µM); MIC [6]: 3.13 µg/mL (≈ 5.82 µM); MIC [9, 18]: 1.56 µg/mL (≈ 2.9 µM); MIC ([11]; ATCC6633, read-out: Minimum Inhibitory Concentration (M.I.C.)): 3.13 µg/mL (≈ 5.82 µM); MIC (Providencia sp. P-8; [21]): 6.25 µg/mL (≈ 11.6 µM); MIC (Sarcina lutea): 6.25 µg/mL (≈ 11.6 µM); MIC (Proteus rettgeri P-6; [20]): 12.5 µg/mL (≈ 23.3 µM)
CC(O)C1C(=O)N2C(C(=O)O)=C(SCCNC(=O)CCNC(=O)C(O)C(C)(C)COP(=O)(O)O)CC12 (centres unmarked) [Phosphoric ester of antibiotic OA-6129B]	25 (≈ 45.2 µM)	> 25	12.5 (≈ 22.6 µM)	> 25	> 25	25 (≈ 45.2 µM)	25 (≈ 45.2 µM)	> 25	25 (≈ 45.2 µM)	0.39 (≈ 0.705 µM)	> 25	6.25 (≈ 11.3 µM)	12.5 (≈ 22.6 µM)	> 25	12.5 (≈ 22.6 µM)	25 (≈ 45.2 µM)	42	100	72	29	MIC (Serratia marcescens S-18; S18, read-out: Minimum Inhibitory Concentration (M.I.C.)): 12.5 µg/mL (≈ 22.6 µM); MIC ([5]; K13, read-out: Minimum Inhibitory Concentration (M.I.C.)): 12.5 µg/mL (≈ 22.6 µM); MIC [6, 18]: > 25 µg/mL; MIC [9]: 12.5 µg/mL (≈ 22.6 µM); MIC [11, 19]: 25 µg/mL (≈ 45.2 µM); MIC (Providencia sp. P-8; [21]): 6.25 µg/mL (≈ 11.3 µM); MIC (Sarcina lutea): > 25 µg/mL; MIC (Proteus rettgeri P-6; P6, read-out: Minimum Inhibitory Concentration (M.I.C.)): 12.5 µg/mL (≈ 22.6 µM)
